# Structures can show the parent of a compound that is named as a salt.
# How the values were obtained:
# SB.msgc-1 [1] = test: viability at highest tested concentration (MAXR) relative to DMSO; higher = less cytotoxic; settings: SB.msgc-1 (sporadic gastric cancer)
# How it was run: (§1)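 In 1536-well plates, each well held 500 gastric cancer cells of hereditary or sporadic patient origin in 5 μL medium. Compound in DMSO (23 nL, pintool) was added at 11 concentrations spaced threefold apart, and the top concentration was noted per compound. Luminescence was read on a ViewLux after a 48 h incubation and a 30 min room-temperature treatment with CellTiter-Glo. Figures give viability normalised to DMSO, either at the highest concentration or as trapezoidal area under the curve.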
# SB.mhdgc-1 [2] = test: as above; settings: SB.mhdgc-1 (hereditary c.1380delA CDH1 gastric cancer)
# How it was run: as §1
# SB.msgc-1 [3] = test: area under the dose-response curve of % viability (trapezoidal, 11 doses) (% viability x log10 concentration); higher = less cytotoxic; settings: SB.msgc-1 (sporadic gastric cancer)
# How it was run: as §1
# SB.mhdgc-1 [4] = test: as above; settings: SB.mhdgc-1 (hereditary c.1380delA CDH1 gastric cancer)
# How it was run: as §1
Structure (SMILES),viability (SB.msgc-1 [1]) [%],viability (SB.mhdgc-1 [2]) [%],area under the dose-response curve (SB.msgc-1 [3]),area under the dose-response curve (SB.mhdgc-1 [4])
C[C@H]([C@H](O)CCC(C)(C)O)[C@H]1CC[C@@]2(O)C/3=C/C(=O)[C@@H]4C[C@@H](O)[C@@H](O)C[C@]4(C)[C@H]3CC[C@]12C [Ecdysone] (top concentration 46.0829 µM),112,142,561,582
CS[C@H]1SC[C@@H]2C(=O)N(C)[C@H](C(C)C)C(=O)OC[C@H](NC(=O)c3cnc4ccccc4n3)C(=O)N[C@H](C)C(=O)N(C)[C@H]1C(=O)N(C)[C@H](C(C)C)C(=O)OC[C@H](NC(=O)c1cnc3ccccc3n1)C(=O)N[C@H](C)C(=O)N2C [Echinomycin] (top concentration 46.0829 µM),34.8,52.7,232,313
Clc1ccc(COC(Cn2ccnc2)c2ccc(Cl)cc2Cl)cc1 (stereo not drawn) [Econazole nitrate] (top concentration 46.0829 µM),64.3,77.1,514,552
C\C1=N\N(C(=O)C1)C2=CC=CC=C2 [Edaravone] (top concentration 46.0829 µM),117,121,530,497
CC1(C)C(N(O)C(=O)Nc2ccc(Cl)cc2)N(c2ccc(Cl)cc2)C(=O)N1CC(=O)N/N=C/C=C/c1ccc([N+](=O)[O-])o1 (stereo not drawn) [Eeyarestatin I] (top concentration 46.0829 µM),1.63,1.97,459,506
O=C1Nc2ccc(Cl)cc2C(C#CC2CC2)(C(F)(F)F)O1 (stereo not drawn) [Efavirenz] (top concentration 46.0829 µM),40.6,52,331,435
NCCCC(N)(C(=O)O)C(F)F (stereo not drawn) [Eflornithine Hydrochloride] (top concentration 46.0829 µM),52.8,54.1,528,485
COc1cc2c(cc1OC)CN(CCc1ccc(NC(=O)c3cccc4c(=O)c5cccc(OC)c5[nH]c34)cc1)CC2 [Elacridar] (top concentration 46.0829 µM),55.4,35.1,480,404
CCC(=C/[C@H](C)C/C=C/C(C)=C/[C@@H](C)C(=O)[C@@H](C)[C@H](O)[C@@H](C)C/C(C)=C/C(=O)O)/C=C/[C@@H]1OC(=O)C=C[C@@H]1C [Elactocin] (top concentration 1.84332 µM),49.9,18,583,451
OC(CN1CCC(Cc2ccc(F)cc2)CC1)c1ccc(Cl)cc1 (stereo not drawn) [Eliprodil] (top concentration 46.0829 µM),81.8,37.7,505,431
O=c1oc2c(O)c(O)cc3c(=O)oc4c(O)c(O)cc1c4c23 [Ellagic acid] (top concentration 46.0829 µM),80.7,67.8,565,533
CC1=NN(c2ccc(C)c(C)c2)C(=O)/C1=N/Nc1cccc(-c2cccc(C(=O)O)c2)c1O [Eltrombopag olamine] (top concentration 46.0829 µM),35.8,71.2,509,535
COC1=CC2=C(C=C1CC3=C(F)C(=CC=C3)Cl)C(=O)\C(=C/N2[C@H](CO)C(C)C)C(O)=O [Elvitegravir] (top concentration 46.0829 µM),48.4,69.1,512,559
CCCCCCCCCCCC/1=C(O)/C(=O)/C=C(O)\C1=O [Embelin] (top concentration 46.0829 µM),27.6,38.3,393,395
CC[C@H]1CN2CCc3cc(OC)c(OC)cc3[C@@H]2C[C@@H]1C[C@H]1NCCc2cc(OC)c(OC)cc21 [Emetine] (top concentration 46.0829 µM),51.9,25.4,390,393
Cc1cc(O)c2c(c1)C(=O)c1cc(O)cc(O)c1C2=O [Emodin] (top concentration 46.0829 µM),88.6,80.4,546,548
C[C@H](NC(=O)C(=O)Nc1ccccc1C(C)(C)C)C(=O)N[C@@H](CC(=O)O)C(=O)COc1c(F)c(F)cc(F)c1F [Emricasan] (top concentration 46.0829 µM),84.6,105,574,537
NC/1=N/C(=O)N(/C=C1F)[C@H]2CS[C@H](CO)O2 [Emtricitabine] (top concentration 46.0829 µM),120,112,520,534
CCOC(=O)[C@H](CCc1ccccc1)N[C@@H](C)C(=O)N1CCC[C@H]1C(=O)O [Enalapril maleate] (top concentration 46.0829 µM),82.3,73,577,504
CC/C(=C(/c1ccc(O)cc1)c1ccc(OCCNC)cc1)c1ccccc1 [Endoxifen] (top concentration 46.0829 µM),34.5,4.91,522,352
CCN1\C=C(\C(O)=O)C(=O)C2=C1N=C(N3CCNCC3)C(=C2)F [Enoxacin] (top concentration 46.0829 µM),80.9,65.9,414,397
CC1(C)[C@@H](O)CC[C@@]2(C)[C@H]1CC[C@]3(C)[C@@H]2C(=O)\C=C/4[C@@H]5C[C@](C)(CC[C@]5(C)CC[C@@]34C)C(O)=O [Enoxolone] (top concentration 46.0829 µM),98.3,57.4,565,505

# — the supplement of paper PMC5412046
